In ChEMBL document CHEMBL4304811, “Development of a Water-Soluble Indolylmaleimide Derivative IM-93 Showing Dual Inhibition of Ferroptosis and NETosis” (ACS Med Chem Lett, 2019) one finds Activity data, which are given here for one compound.

Test [1] addresses Ephrin type-A receptor 8 (Homo sapiens) (UniProt P29322). In words: Binding affinity to wild-type human partial length EPHA8 (Q608 to C920 residues) expressed in bacterial expression system assessed as residual binding level at 10 uM by Kinomescan method relative to control.
The target of test [2] is Serine/threonine-protein kinase DCLK2 (Homo sapiens) (UniProt Q8N568). In words: Binding affinity to wild-type human partial length DCAMKL2 (K273 to V664 residues) expressed in bacterial expression system assessed as residual binding level at 10 uM by Kinomescan method relative to control.
Test [3] has as its target Insulin-like growth factor 1 receptor (Homo sapiens) (UniProt P08069). In words: Binding affinity to wild-type human partial length IGF1R (L972 to D1294 residues) expressed in bacterial expression system assessed as residual binding level at 10 uM by Kinomescan method relative to control.
Test [4] concerns the target Serine/threonine-protein kinase ULK1 (Homo sapiens) (UniProt O75385). In words: Binding affinity to wild-type human partial length ULK1 (M1 to T309 residues) expressed in mammalian expression system assessed as residual binding level at 10 uM by Kinomescan method relative to control.
Test [5] deals with Cyclin-dependent kinase 3 (Homo sapiens) (UniProt Q00526). Description: Binding affinity to wild-type human full length CDK3 (M1 to H305 residues) expressed in bacterial expression system assessed as residual binding level at 10 uM by Kinomescan method relative to control.
Test [6] concerns Epidermal growth factor receptor (Homo sapiens), P00533 [T790M]. In words: Binding affinity to human partial length EGFR T790M mutant (R669 to G1022 residues) expressed in mammalian expression system assessed as residual binding level at 10 uM by Kinomescan method relative to control.
Test [7] concerns Tyrosine-protein kinase ABL1 (Homo sapiens), P00519 [H396P]. In words: Binding affinity to human non-phosphorylated ABL1 H396P mutant (S229 to K512 residues) expressed in mammalian expression system assessed as residual binding level at 10 uM by Kinomescan method relative to control.
In test [8] the target is BMP-2-inducible protein kinase (Homo sapiens) (UniProt Q9NSY1). In words: Binding affinity to wild-type human partial length BIKE (S34 to N329 residues) expressed in bacterial expression system assessed as residual binding level at 10 uM by Kinomescan method relative to control.
The test system of test [9] is Tyrosine-protein kinase ABL1 (Homo sapiens), P00519 [Q252H]. Description: Binding affinity to human phosphorylated ABL1 Q252H mutant expressed in mammalian expression system assessed as residual binding level at 10 uM by Kinomescan method relative to control.
The target of test [10] is Serine/threonine-protein kinase PLK2 (Homo sapiens) (UniProt Q9NYY3). In words: Binding affinity to wild-type human partial length PLK2 (H58 to F354 residues) expressed in mammalian expression system assessed as residual binding level at 10 uM by Kinomescan method relative to control.
The target of test [11] is Mitogen-activated protein kinase 13 (Homo sapiens) (UniProt O15264). Description: Binding affinity to wild-type human full length p38-delta (M1 to L365 residues) expressed in bacterial expression system assessed as residual binding level at 10 uM by Kinomescan method relative to control.
The target of test [12] is Mitogen-activated protein kinase kinase kinase 12 (DLK) (Homo sapiens) (UniProt Q12852). Description: Binding affinity to wild-type human full length DLK (M1 to P859 residues) expressed in mammalian expression system assessed as residual binding level at 10 uM by Kinomescan method relative to control.
In test [13] the target is Dual specificity tyrosine-phosphorylation-regulated kinase 1A (Homo sapiens) (UniProt Q13627). Description: Binding affinity to wild-type human partial length DYRK1A (H129 to S509 residues) expressed in mammalian expression system assessed as residual binding level at 10 uM by Kinomescan method relative to control.
Test [14] has as its target Activin receptor type-1 (Homo sapiens) (UniProt Q04771). In words: Binding affinity to wild-type human ACVR1 (C188 to C509 residues) expressed in bacterial expression system assessed as residual binding level at 10 uM by Kinomescan method relative to control.
For test [15], the target named is Phosphatidylinositol 4-phosphate 3-kinase C2 domain-containing subunit beta (Homo sapiens) (UniProt O00750). Description: Binding affinity to wild-type human partial length PIK3C2B (M1 to L1634 residues) expressed in mammalian expression system assessed as residual binding level at 10 uM by Kinomescan method relative to control.
Test [16] concerns the target Dual specificity mitogen-activated protein kinase kinase 2 (Homo sapiens) (UniProt P36507). Description: Binding affinity to wild-type human full length MEK2 (M1 to V400 residues) expressed in mammalian expression system assessed as residual binding level at 10 uM by Kinomescan method relative to control.
Test [17] deals with Mitotic checkpoint serine/threonine-protein kinase BUB1 (Homo sapiens) (UniProt O43683). Description: Binding affinity to wild-type human partial length BUB1 (Q724 to K1085 residues) expressed in mammalian expression system assessed as residual binding level at 10 uM by Kinomescan method relative to control.
Test [18] relates to Epidermal growth factor receptor (Homo sapiens), P00533 [UNDEFINED MUTATION]. In words: Binding affinity to human partial length EGFR L747-S752del/P753S mutant expressed in bacterial expression system assessed as residual binding level at 10 uM by Kinomescan method relative to control.
Test [19] has as its target Tyrosine-protein kinase Mer (Homo sapiens) (UniProt Q12866). In words: Binding affinity to wild-type human partial length MERTK (R557 to L884 residues) expressed in bacterial expression system assessed as residual binding level at 10 uM by Kinomescan method relative to control.
The target in test [20] is Tyrosine-protein kinase ITK/TSK (Homo sapiens) (UniProt Q08881). In words: Binding affinity to wild-type human partial length ITK (R335 to L620 residues) expressed in bacterial expression system assessed as residual binding level at 10 uM by Kinomescan method relative to control.
Test [21] has as its target High affinity nerve growth factor receptor (Homo sapiens) (UniProt P04629). In words: Binding affinity to wild-type human partial length TRKA (G475 to G790 residues) expressed in mammalian expression system assessed as residual binding level at 10 uM by Kinomescan method relative to control.
Test [22] has as its target Insulin receptor (Homo sapiens) (UniProt P06213). Description: Binding affinity to wild-type human partial length INSR (P997 to E1318 residues) expressed in mammalian expression system assessed as residual binding level at 10 uM by Kinomescan method relative to control.
The target of test [23] is Serine/threonine-protein kinase mTOR (Homo sapiens) (UniProt P42345). Description: Binding affinity to wild-type human partial length MTOR (L1382 to W2549 residues) expressed in mammalian expression system assessed as residual binding level at 10 uM by Kinomescan method relative to control.
In test [24] the target is Calcium-dependent protein kinase 1 (Plasmodium falciparum) (UniProt P62344). Description: Binding affinity to wild-type Plasmodium falciparum full length CDPK1 (M1 to S524 residues) expressed in mammalian expression system assessed as residual binding level at 10 uM by Kinomescan method relative to control.
Sequence of Calcium-dependent protein kinase 1 (Plasmodium falciparum) (P62344 2-524 limits assumed): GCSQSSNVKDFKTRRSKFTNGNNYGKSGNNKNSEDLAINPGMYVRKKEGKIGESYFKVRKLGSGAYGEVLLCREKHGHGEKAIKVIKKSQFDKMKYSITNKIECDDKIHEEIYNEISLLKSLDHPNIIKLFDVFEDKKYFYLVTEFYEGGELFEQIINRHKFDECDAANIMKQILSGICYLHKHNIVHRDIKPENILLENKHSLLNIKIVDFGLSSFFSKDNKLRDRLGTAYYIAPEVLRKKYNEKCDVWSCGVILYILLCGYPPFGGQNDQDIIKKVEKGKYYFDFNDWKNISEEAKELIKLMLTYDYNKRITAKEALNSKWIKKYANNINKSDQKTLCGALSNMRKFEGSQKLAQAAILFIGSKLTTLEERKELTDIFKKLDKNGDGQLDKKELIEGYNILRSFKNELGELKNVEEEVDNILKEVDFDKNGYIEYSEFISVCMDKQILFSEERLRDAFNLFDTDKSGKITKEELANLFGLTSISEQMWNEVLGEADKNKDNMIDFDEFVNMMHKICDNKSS

Sequence of Mitogen-activated protein kinase kinase kinase 12 (DLK) (Homo sapiens) (Q12852 whole entry, looked up, the tested form may be a part): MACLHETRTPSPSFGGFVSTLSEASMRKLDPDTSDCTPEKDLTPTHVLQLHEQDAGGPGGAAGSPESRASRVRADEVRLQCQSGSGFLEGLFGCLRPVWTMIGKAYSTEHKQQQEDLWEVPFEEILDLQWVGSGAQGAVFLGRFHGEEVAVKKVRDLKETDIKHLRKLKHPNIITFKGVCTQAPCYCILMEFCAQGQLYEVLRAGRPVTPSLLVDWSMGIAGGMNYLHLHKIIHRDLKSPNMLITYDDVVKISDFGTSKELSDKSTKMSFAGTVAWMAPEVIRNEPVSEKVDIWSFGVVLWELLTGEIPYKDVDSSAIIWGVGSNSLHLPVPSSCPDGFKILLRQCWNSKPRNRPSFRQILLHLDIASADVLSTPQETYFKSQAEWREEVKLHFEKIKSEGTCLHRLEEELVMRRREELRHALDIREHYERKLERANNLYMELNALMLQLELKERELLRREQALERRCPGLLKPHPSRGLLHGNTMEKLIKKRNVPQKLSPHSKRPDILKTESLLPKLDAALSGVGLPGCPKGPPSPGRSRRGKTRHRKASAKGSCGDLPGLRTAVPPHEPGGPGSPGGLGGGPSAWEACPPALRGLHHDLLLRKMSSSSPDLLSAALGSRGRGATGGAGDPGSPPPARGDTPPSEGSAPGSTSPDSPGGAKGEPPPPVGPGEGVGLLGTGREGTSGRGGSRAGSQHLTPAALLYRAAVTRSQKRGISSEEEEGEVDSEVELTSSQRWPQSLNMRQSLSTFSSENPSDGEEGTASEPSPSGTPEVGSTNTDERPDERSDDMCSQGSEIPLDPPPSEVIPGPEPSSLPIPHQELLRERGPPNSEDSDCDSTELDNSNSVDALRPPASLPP
Sequence of Insulin-like growth factor 1 receptor (Homo sapiens) (P08069 31-736 limits assumed): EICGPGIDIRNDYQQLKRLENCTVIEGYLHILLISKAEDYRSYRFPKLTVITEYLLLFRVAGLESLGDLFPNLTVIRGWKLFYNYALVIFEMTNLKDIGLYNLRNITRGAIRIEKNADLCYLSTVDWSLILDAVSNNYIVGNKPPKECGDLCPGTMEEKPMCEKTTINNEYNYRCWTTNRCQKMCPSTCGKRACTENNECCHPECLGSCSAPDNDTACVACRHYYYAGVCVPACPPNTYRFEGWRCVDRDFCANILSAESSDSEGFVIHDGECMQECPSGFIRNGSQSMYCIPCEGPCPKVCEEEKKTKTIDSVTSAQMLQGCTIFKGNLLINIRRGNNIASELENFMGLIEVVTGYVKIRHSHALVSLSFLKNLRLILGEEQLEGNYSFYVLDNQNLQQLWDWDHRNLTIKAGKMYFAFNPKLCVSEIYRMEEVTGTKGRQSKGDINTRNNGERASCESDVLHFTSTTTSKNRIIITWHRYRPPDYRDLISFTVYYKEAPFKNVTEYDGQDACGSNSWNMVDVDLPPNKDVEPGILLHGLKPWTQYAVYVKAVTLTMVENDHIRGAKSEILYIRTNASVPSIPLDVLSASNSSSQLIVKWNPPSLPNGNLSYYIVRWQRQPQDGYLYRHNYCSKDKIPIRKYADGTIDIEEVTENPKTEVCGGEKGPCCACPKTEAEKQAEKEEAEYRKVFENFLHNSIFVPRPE
Sequence of Insulin-like growth factor 1 receptor (Homo sapiens) (P08069 741-1367 limits assumed): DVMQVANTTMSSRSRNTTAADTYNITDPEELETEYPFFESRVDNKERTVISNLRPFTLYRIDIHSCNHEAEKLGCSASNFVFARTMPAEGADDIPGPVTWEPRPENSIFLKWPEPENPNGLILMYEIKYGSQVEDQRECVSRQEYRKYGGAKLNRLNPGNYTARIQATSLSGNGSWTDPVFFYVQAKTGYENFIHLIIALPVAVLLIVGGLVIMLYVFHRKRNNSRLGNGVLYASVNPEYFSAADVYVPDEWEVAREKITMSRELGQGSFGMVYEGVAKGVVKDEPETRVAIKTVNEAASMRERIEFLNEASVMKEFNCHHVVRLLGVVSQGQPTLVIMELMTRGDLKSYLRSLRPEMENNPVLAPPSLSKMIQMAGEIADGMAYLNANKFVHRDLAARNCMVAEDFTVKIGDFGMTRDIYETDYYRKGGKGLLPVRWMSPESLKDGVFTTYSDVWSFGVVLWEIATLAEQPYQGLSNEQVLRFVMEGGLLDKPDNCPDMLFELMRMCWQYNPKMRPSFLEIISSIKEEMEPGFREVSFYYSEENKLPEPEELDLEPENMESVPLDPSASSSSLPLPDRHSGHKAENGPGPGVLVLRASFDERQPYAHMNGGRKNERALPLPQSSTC
Sequence of Tyrosine-protein kinase ITK/TSK (Homo sapiens) (Q08881 whole entry, the tested form may be a part): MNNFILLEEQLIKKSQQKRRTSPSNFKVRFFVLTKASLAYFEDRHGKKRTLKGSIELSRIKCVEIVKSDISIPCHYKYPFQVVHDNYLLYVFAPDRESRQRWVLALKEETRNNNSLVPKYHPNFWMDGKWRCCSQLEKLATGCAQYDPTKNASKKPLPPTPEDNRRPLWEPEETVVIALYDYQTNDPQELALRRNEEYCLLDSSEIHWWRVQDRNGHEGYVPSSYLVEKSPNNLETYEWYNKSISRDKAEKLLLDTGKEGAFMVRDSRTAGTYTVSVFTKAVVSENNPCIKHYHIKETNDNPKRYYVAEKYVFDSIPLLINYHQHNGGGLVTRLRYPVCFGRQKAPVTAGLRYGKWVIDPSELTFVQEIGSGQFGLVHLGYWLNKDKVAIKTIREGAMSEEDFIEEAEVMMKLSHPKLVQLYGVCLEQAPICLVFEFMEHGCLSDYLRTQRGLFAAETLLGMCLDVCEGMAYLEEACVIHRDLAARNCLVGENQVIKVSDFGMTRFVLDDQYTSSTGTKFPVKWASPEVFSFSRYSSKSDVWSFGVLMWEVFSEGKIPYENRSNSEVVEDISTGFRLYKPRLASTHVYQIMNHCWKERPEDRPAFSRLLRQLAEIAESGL
Sequence of Phosphatidylinositol 4-phosphate 3-kinase C2 domain-containing subunit beta (Homo sapiens) (O00750 whole entry, the tested form may be a part): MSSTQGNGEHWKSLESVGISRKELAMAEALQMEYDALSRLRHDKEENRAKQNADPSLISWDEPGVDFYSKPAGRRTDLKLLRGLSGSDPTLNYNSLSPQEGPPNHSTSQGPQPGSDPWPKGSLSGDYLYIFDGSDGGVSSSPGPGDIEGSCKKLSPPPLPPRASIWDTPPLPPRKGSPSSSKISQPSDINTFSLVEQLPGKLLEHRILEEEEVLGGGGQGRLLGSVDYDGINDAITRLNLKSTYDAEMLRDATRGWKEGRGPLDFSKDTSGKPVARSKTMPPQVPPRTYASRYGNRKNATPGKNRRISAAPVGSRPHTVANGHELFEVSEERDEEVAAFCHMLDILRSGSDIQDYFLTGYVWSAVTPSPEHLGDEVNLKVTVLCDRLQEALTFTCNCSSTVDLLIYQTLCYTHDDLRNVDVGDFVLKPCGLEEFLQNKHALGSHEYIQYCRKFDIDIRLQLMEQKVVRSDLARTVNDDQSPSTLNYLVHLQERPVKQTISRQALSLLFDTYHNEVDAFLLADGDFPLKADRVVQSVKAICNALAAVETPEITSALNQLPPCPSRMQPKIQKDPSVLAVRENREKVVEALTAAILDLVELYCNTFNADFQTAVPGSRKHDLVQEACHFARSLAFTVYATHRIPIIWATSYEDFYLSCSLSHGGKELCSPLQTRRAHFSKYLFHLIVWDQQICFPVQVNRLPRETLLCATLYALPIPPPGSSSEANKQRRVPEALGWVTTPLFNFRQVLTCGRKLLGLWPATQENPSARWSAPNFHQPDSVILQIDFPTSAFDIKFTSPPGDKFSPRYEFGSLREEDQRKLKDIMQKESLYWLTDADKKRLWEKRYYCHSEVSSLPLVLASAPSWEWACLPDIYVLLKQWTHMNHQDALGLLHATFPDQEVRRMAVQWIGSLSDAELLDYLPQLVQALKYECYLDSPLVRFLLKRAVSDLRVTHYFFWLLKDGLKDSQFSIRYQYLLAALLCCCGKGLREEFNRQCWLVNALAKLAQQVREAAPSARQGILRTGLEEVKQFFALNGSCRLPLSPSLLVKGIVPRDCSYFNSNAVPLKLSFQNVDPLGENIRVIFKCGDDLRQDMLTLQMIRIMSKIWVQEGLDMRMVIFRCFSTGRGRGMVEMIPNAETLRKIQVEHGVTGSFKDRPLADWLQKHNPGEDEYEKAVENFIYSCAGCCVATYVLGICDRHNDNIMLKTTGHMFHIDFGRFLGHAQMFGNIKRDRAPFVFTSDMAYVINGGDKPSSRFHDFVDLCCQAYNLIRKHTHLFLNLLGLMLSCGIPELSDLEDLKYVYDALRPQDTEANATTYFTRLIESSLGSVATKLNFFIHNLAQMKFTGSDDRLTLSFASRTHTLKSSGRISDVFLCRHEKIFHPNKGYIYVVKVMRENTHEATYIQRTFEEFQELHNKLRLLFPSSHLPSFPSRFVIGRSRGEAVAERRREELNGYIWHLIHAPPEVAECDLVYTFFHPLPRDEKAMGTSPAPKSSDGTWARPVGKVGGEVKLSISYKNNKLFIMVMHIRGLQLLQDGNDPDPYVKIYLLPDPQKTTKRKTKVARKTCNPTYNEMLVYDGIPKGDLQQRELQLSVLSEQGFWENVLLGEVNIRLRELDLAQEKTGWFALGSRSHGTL

For the compound `CC(C)N1C(=O)C(NCCCN(C)C)=C(c2cn(C)c3ccccc23)C1=O.Cl`, the Activity worked out at 89% in test [1]; 94% in test [2]; 80% in test [3]; 79% in test [4]; 99% in test [5]; 91% in test [6]. Moreover, the Activity came out at 90% in [7]; 94% in test [8]; 84% in test [9]; 97% in [10]; 100% in [11]; 99% in test [12]. The Activity in test [13] is 87%; in test [14], 100%; in test [15], 81%; in test [16], 94%; in [17], 92%; in test [18], 88%. Moreover, the Activity worked out at 71% in test [19]; 100% in [20]; 100% in test [21]; 100% in [22]; 87% in test [23]; 81% in [24].
